# Assays:
# HepG2 and PLC cells = test: Clonogenic survival assay; type: cell-based, human; conditions: 0.2 μM
# Method: To analyze the clonogenic growth behavior of cell populations on tissue culture plastic, 500 cells were seeded in a 6-well plate and, either untreated or pretreated with BA-12 or BP-14 for 24 hours, incubated with standard medium for 10 days at 37° C. and 5% CO2. Colonies were fixed with methanol/acetic acid (3:1) and stained with 0.25% crystal violet. The crystal violet of fixed cells was solubilized with 1% SDS and the absorbance was photometrically determined at 560 nm.
# DEN-induced hepatoma = test: Diethylnitrosamine-induced liver cancer and drug intervention; type: in vivo, C57BL/6J mice; conditions: 3 cycles of 10 days, i.p., breaks of 7 days
# Method: To initiate tumor development in the liver, 14-day-old C57BL/6J mice were intraperitoneally injected with a single dose of diethylnitrosamine (DEN, 25 mg/kg). After 8 month, pharmacological intervention was administrated in DEN-induced mice by 3 cycles of treatment with compounds for 10 days and a release from compounds for 7 days between the cycles. Either 5 mg/kg BA-12 or 1 mg/kg BP-14 was intraperitoneally injected in 100 μl of 0.01% DMSO. Control mice obtained 100 μl solvent only. Thereafter, mice were sacrificed and livers were fixed in 4% formaldehyde. Two researchers independently scored the diameters of neoplasia that could be monitored at the liver surface. Cancerous nodules with a diameter of up to 1 cm, covering more than 97% of all visible hepatomas, were included into the analysis. […] All animal experiments were performed according to the Austrian guidelines for animal care and protection.
# HUVEC cells = test: Tube formation assay on Matrigel; type: cell-based, human; conditions: 24 h treatment
# Method: For an evaluation of tube formation, HUVEC cells in endothelial cell growth medium (ECGM) containing tested compound were seeded onto Matrigel® (BD) coated ibidi angiogenesis slides (15-well, ibidi GmbH, Munich, Germany). After 24 h, images were taken using the Olympus BX50 miscoscope with DP Controller system. Evaluation of formation of tubes was expressed as a number of tubes and number of nodes of treated cells compared with untreated control using specific “in house” software.
# Mcl-1 = test: Immunoblot analysis of anti-apoptotic protein Mcl-1; type: cell-based; conditions: Hep3B, PLC/PRF/5 and AKH3p cell lines, 24 hours
# Method: (§1) Effect of BP14 on cell apoptosis was complemented by immunoblot analysis of selected apoptotic proteins. For immunoblotting, cell were detached with rubber policeman and washed three times with ice-cold PBS and lysed in buffer (50 mM Tris, pH 7.4, 250 mM NaCl, 5 mM EDTA, 50 mM NaF, 1 mM Na3VO4, 1% Nonidet P40) containing mixture of protease and phosphatase inhibitors (Sigma-Aldrich, USA). 20 μg of total proteins were separated by SDS-polyacrylamide gel electrophoresis (SDS-PAGE) and transferred onto nitrocellulose membranes. Membranes were blocked in 5% milk and 0.1% Tween 20 in PBS and probed overnight with specific antibodies for PARP-1 (clone F-2; Santa Cruz Biotechnology, USA), Mcl-1 (S-19; Santa Cruz Biotechnology, USA) and β-actin (C-4, Santa Cruz Biotechnology, USA). All primary antibodies were diluted in PBS containing 5% powdered milk; 0.1% Tween 20. Peroxidase conjugated rabbit anti-mouse immunoglobulin or porcine anti-rabbit immunoglobulin antisera (DAKO, Denmark) were used as the secondary antibodies and visualised with ECL reagents (Amersham-Pharmacia, Little Chalfont, UK).
# CDK5/p35 = molecular target: T1, CDK5/p35 (Homo sapiens, UniProt Q00535); test: Kinase inhibition assay, recombinant kinase, [γ-33P]ATP; type: biochemical; conditions: Table 12; read-out: IC50, CDK5/p25NCK
# T1 construct: purchased ProQinase GmbH (Freiburg, Germany)
# CDK1/CDK2 = test: Kinase inhibition assays using cell-free extracts; type: biochemical, human; conditions: 0.03 μM
# Method: Whole cell extracts were prepared by lysing Hep3B cells with a buffer containing 20 mM Tris pH 8.0, 100 mM NaCl, 1 mM EDTA and 0.5% NP-40. 100 μg of extract was used for immunoprecipitation at 4° C. for 4 hours either with 1 μg of the anti-CDK2 antibody M2 (Santa Cruz Biotechnology, Santa Cruz, USA) or with 1 μg of the anti-cyclin B1 antibody GNS1 (Santa Cruz Biotechnology, Santa Cruz, USA). The precipitated proteins were washed three times with lysis buffer followed by one wash with the kinase buffer (50 mM HEPES pH 7.5, 10 mM MgCl2 and 1 mM DTT) and subsequently resuspended in 20 μl kinase buffer containing 5 μCi [γ-^32P]ATP
# (PerkinElmer, Santa Clara, USA), 1 μg histone H1 (New England Biolabs, Ipswich, USA) and the respective concentration of inhibitor. After incubation for 60 minutes at 30° C., the supernatant was boiled in sample buffer containing 60 mM Tris/HCl pH6.8, 10% Glycerol, 2% SDS, 5% β-mercaptoethanol, 0.02% Bromophenol Blue. The proteins were separated by SDS-PAGE and blotted onto nitrocellulose membrane. Thereafter, the membrane was stained with Ponceau S to check equal loading and analyzed by autoradiography.
# PARP-1 = test: Immunoblot analysis of PARP cleavage; type: cell-based, human
# Method: as §1
# Immunoblotting was performed as described previously (36). The primary antibodies were used at the dilutions: anti-phospho-Ser5 RNA Pol II (CDK7; Bethyl Laboratories, Montgomery, USA), 1:1,000; anti-phospho-Ser2 RNA Pol II (CDK9; Bethyl Laboratories, Montgomery, USA), 1:1,000; anti-RNA Pol II (Santa Cruz Biotechnology, Santa Cruz, USA), 1:1,000; anti-PARP (Cell Signaling Technology, Beverly, USA), 1:1,000; anti-β-actin (Sigma, St. Louis, USA), 1:2.500. Horseradish peroxidase-conjugated secondary antibodies (Calbiochem, LaJolla, USA) were used at dilutions of 1:10,000.
# [1] = test system: caspases-3/7 in Hep3B carcinoma cells; test: Caspase-3/7 activity in lysates of treated cells (Example 33); type: cell-based, human; conditions: 24 h treatment, concentration of 3xIC50
# Method: Measurements of proapoptotic properties of BP14 were based on quantification of enzymatic activities of caspases-3/7. For caspase assays, treated cells were harvested by centrifugations and homogenized in an extraction buffer (10 mM KCl, 5 mM Hepes, 1 mM EDTA, 1 mM EGTA, 0.2% CHAPS, inhibitors of proteases, pH 7.4) on ice for 20 min. The homogenates were clarified by centrifugation at 10,000 g for 20 min at 4° C., then proteins were quantified by the Bradford method and diluted to the same concentration. Lysates were then incubated for 5 h with 100 μM Ac-DEVD-AMC as substrate (Sigma-Aldrich) in an assay buffer (25 mM PIPES, 2 mM EGTA, 2 mM MgCl2, 5 mM DTT, pH 7.3). The fluorescence of the product was measured using a Fluoroskan Ascent microplate reader (Labsystems, Helsinki, Finland) at 346 nm/442 nm (ex/em).
# T1 sequence (Q00535 whole entry): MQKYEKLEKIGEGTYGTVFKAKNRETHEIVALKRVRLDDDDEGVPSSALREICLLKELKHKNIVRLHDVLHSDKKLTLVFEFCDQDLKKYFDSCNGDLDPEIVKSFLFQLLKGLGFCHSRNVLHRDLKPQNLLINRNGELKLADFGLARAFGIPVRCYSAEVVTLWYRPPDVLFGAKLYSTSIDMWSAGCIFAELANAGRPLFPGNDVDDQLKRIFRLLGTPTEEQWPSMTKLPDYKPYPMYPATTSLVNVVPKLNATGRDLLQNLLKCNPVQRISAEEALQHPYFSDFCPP
# T1 sequence (Q15078 whole entry partner): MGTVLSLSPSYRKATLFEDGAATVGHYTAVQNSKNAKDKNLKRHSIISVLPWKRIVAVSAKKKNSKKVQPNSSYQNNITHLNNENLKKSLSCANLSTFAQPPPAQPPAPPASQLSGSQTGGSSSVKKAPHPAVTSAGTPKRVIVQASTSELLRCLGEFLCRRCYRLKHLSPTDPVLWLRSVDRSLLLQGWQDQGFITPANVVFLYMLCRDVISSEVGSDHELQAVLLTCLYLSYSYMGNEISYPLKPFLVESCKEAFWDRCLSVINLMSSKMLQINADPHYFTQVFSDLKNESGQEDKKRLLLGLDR
SMILES,reduction of clonogenic growth behavior (HepG2 and PLC cells),decrease of tumor nodules as compared to untreated control mice (DEN-induced hepatoma) [fold],"branching points, number of tubes, total tube length and mean tube length (HUVEC cells)",level of anti-apoptotic protein Mcl-1 (Mcl-1),IC50 (CDK5/p35) [nM],CDK1/CDK2 activity in cell-free extracts (CDK1/CDK2),"cleavage of PARP and p53 expression (PARP-1; 0.2 μM, HepG2 and p53-mutated PLC cells)","protein level of PARP-1 (PARP-1; HUH-7 cells, concentration up to 3xIC50)","caspase-3-cleaved PARP-1 fragment at 89 kDa (PARP-1; Hep3B and AHK3p cells, 24 hours)",PARP processing in PHHs (PARP-1; primary human hepatocytes),activity of caspase-3/7 compared with the untreated control [1]
"NC1CCC(Nc2nc(NCc3ccc(-c4ccco4)nc3)c3ncn(C4CCCC4)c3n2)CC1 (stereo not drawn) [BP14, N^2-(4-amino-cyclohexyl)-9-cyclopentyl-N^6-(6-furan-2-yl-pyridin-3-ylmethyl)-9H-purine-2,6-diamine]",more than 15 fold,1.3,significantly reduced,large dose-dependent decrease,15,significantly reduced CDK1/CDK2 activity,induced cleavage of PARP and p53 expression,no effect,markedly observed,failed to induce PARP processing,twenty-fold increase
"NC1CCC(Nc2nc(NCc3ccc(-c4ccccc4O)nc3)c3ncn(C4CCCC4)c3n2)CC1 (stereo not drawn) [BP20, N^2-(4-amino-cyclohexyl)-9-cyclopentyl-N^6-[6-(2-hydroxy-phenyl)-pyridin-3-ylmethyl]-9H-purine-2,6-diamine]",–,–,significantly reduced,–,–,–,–,–,–,–,–

# From US20150368248A1, “2-SUBSTITUTED-6-BIARYLMETHYLAMINO-9-CYCLOPENTYL-9H-PURINE DERIVATIVES, USE THEREOF AS MEDICAMENTS, AND PHARMACEUTICAL COMPOSITIONS” (UNIVERZITA PALACKEHO V OLOMOUCI, priority 2013, published 2015)
